The target of this assay is recombinant full length HPK-1 enzyme (Homo sapiens (Human), UniProt Q92918). The assay is described as follows: HPK-1 biochemical enzyme assay (ADP-Glo kinase inhibition). The note with it: recombinant full length HPK-1 6.8 nM, 10 μM ATP, 12.5 μM MBP, 30 mins at 25° C. As for the experimental part:
HPK-1 biochemical enzyme assay
Compound inhibitory potency was measured in an HPK-1 kinase inhibition assay. Briefly, recombinant full length HPK-1 enzyme (6.8 nM) was incubated with 10 μM ATP and 12.5 μM swine myelin basic protein (MBP) for 30 mins. at 25° C. in the presence of various concentrations of test compound or vehicle in 40 mM Tris.Cl pH7.4 buffer containing 20 mM MgCl2, 50 μM DTT and 0.1 mg/mL BSA. Reactions were quenched and reaction mixtures were then analyzed by an ADP-Glo kit which measures the formed ADP. The percent inhibition was calculated from the substrate conversion considering no enzyme control reactions for 100% inhibition and vehicle only reactions for 0% inhibition. The compounds were dissolved in DMSO and evaluated at 10 concentrations to determine an IC50 value.
In the below table A denotes an HPK-1 IC50≤10 nM, B denotes an HPK-1 IC50>10 nM but≤100 nM and C denotes an HPK-1 IC50>100 nM but≤1000 nM.

Sequence of recombinant full length HPK-1 enzyme (Q92918 whole entry, species assumed): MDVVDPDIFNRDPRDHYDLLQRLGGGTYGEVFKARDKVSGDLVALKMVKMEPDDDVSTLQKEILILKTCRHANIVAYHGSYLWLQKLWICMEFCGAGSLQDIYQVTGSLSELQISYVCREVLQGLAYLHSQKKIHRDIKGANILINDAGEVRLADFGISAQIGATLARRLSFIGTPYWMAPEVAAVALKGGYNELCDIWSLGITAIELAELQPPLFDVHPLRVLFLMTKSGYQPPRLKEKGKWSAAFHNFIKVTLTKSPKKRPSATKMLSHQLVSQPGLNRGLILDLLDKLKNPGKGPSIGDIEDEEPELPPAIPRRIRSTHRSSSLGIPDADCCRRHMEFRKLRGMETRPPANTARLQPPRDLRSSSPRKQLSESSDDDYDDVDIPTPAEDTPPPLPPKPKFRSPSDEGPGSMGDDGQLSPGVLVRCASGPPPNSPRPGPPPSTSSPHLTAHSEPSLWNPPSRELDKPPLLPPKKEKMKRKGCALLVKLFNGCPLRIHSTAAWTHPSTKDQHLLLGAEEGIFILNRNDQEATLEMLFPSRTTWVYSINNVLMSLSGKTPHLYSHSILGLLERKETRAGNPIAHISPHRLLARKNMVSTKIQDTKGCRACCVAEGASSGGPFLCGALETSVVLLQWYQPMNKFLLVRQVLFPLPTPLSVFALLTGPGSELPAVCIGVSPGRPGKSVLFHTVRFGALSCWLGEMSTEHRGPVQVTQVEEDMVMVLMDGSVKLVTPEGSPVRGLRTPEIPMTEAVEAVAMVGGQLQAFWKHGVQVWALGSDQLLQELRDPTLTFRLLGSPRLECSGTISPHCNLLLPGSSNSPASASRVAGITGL

`Cc1c(Nc2cc[nH]c(=O)c2C(=O)Nc2ccc(N3CCN(C4CCCC4)CC3)cc2)cnc2c1NCCO2` [Example 147, N-(4-(4-cyclopentylpiperazin-1-yl)phenyl)-4-((8-methyl-2,3-dihydro-1H-pyrido[2,3-b][1,4]oxazin-7-yl)amino)-2-oxo-1,2-dihydropyridine-3-carboxamide]: the IC50 was at most 10 nM.
With `Cc1c(Nc2cc[nH]c(=O)c2C(=O)Nc2ccc(-c3cccnc3)cc2)cnc2c1NCCO2` [Example 151, 4-((8-methyl-2,3-dihydro-1H-pyrido[2,3-b][1,4]oxazin-7-yl)amino)-2-oxo-N-(4-(pyridin-3-yl)phenyl)-1,2-dihydropyridine-3-carboxamide] the figure was 10 to 100 nM; with `Cc1c(Nc2cc[nH]c(=O)c2C(=O)Nc2ccc(-c3ccncc3)cc2)cnc2c1NCCO2` [Example 152, 4-((8-methyl-2,3-dihydro-1H-pyrido[2,3-b][1,4]oxazin-7-yl)amino)-2-oxo-N-(4-(pyridin-4-yl)phenyl)-1,2-dihydropyridine-3-carboxamide], 10 to 100 nM.
As for `Cc1c(Nc2cc[nH]c(=O)c2C(=O)Nc2ccc(N3CCCC(N)C3)cc2)cnc2c1NCCO2` (stereo not shown) [Example 153, N-(4-(3-aminopiperidin-1-yl)phenyl)-4-((8-methyl-2,3-dihydro-1H-pyrido[2,3-b][1,4]oxazin-7-yl)amino)-2-oxo-1,2-dihydropyridine-3-carboxamide], the IC50 was at most 10 nM.
As for `Cc1c(Nc2cc[nH]c(=O)c2C(=O)Nc2ccc(N3CCC(N)CC3)cc2)cnc2c1NCCO2` [Example 154, N-(4-(4-aminopiperidin-1-yl)phenyl)-4-((8-methyl-2,3-dihydro-1H-pyrido[2,3-b][1,4]oxazin-7-yl)amino)-2-oxo-1,2-dihydropyridine-3-carboxamide], the IC50 was at most 10 nM.
With `Cc1c(Nc2cc[nH]c(=O)c2C(=O)Nc2ccc(N3CCN(CCO)CC3)cc2)cnc2c1NCC(C)O2` (stereo not shown) [Example 156, 4-((3,8-dimethyl-2,3-dihydro-1H-pyrido[2,3-b][1,4]oxazin-7-yl)amino)-N-(4-(4-(2-hydroxyethyl)piperazin-1-yl)phenyl)-2-oxo-1,2-dihydropyridine-3-carboxamide] the figure was 10 to 100 nM; with `Cc1c(Nc2cc[nH]c(=O)c2C(=O)Nc2ccc(N3CCC(F)(F)CC3)cc2)cnc2c1NCCO2` [Example 161, N-(4-(4,4-difluoropiperidin-1-yl)phenyl)-4-((8-methyl-2,3-dihydro-1H-pyrido[2,3-b][1,4]oxazin-7-yl)amino)-2-oxo-1,2-dihydropyridine-3-carboxamide], 10 to 100 nM; with `Cc1c(Nc2cc[nH]c(=O)c2C(=O)Nc2ccc(N3CC4CCC(C3)N4C)cc2)cnc2c1NCCO2` [Example 162, 4-((8-methyl-2,3-dihydro-1H-pyrido[2,3-b][1,4]oxazin-7-yl)amino)-N-(4-(8-methyl-3,8-diazabicyclo[3.2.1]octan-3-yl)phenyl)-2-oxo-1,2-dihydropyridine-3-carboxamide], at most 10 nM.
With `Cc1c(Nc2cc[nH]c(=O)c2C(=O)Nc2ccc3c(c2)CN(C)CC3)cnc2c1NCCO2` [Example 163, N-(2-Methyl-1,2,3,4-tetrahydroisoquinolin-7-yl)-4-((8-methyl-2,3-dihydro-1H-pyrido[2,3-b][1,4]oxazin-7-yl)amino)-2-oxo-1,2-dihydropyridine-3-carboxamide] the figure was 10 to 100 nM.
With `Cc1c(Nc2cc[nH]c(=O)c2C(=O)Nc2ccc(N3CCN(C)CC3)cc2)cnc2c1NCC(C)O2` (stereo not shown) [Example 164, 4-((3,8-dimethyl-2,3-dihydro-1H-pyrido[2,3-b][1,4]oxazin-7-yl)amino)-N-(4-(4-methylpiperazin-1-yl)phenyl)-2-oxo-1,2-dihydropyridine-3-carboxamide] the figure was 10 to 100 nM.
Consider `Cc1c(Nc2cc[nH]c(=O)c2C(=O)Nc2ccc(N3CCN(C)CC3)cc2)cnc2c1NCC(C)O2` (stereo not shown) [Example 165, 4-((3,8-dimethyl-2,3-dihydro-1H-pyrido[2,3-b][1,4]oxazin-7-yl)amino)-N-(4-(4-methylpiperazin-1-yl)phenyl)-2-oxo-1,2-dihydropyridine-3-carboxamide], for which the IC50 was at most 10 nM.
`Cc1c(Nc2cc[nH]c(=O)c2C(=O)Nc2ccc(N3CCN(C4CC4)CC3)cc2)cnc2c1NCCO2` [Example 167, N-(4-(4-Cyclopropylpiperazin-1-yl)phenyl)-4-((8-methyl-2,3-dihydro-1H-pyrido[2,3-b][1,4]oxazin-7-yl)amino)-2-oxo-1,2-dihydropyridine-3-carboxamide]: the IC50 was at most 10 nM.
For the molecule `Cc1c(Nc2cc[nH]c(=O)c2C(=O)Nc2ccc3c(c2)OCC2CN(C)CCN32)cnc2c1NCCO2` (stereo not shown) [Example 168, N-(3-Methyl-1,2,3,4,4a,5-hexahydrobenzo[b]pyrazino[1,2-d][1,4]oxazin-8-yl)-4-((8-methyl-2,3-dihydro-1H-pyrido[2,3-b][1,4]oxazin-7-yl)amino)-2-oxo-1,2-dihydropyridine-3-carboxamide], the IC50 was at most 10 nM.
With `Cc1c(Nc2cc[nH]c(=O)c2C(=O)Nc2ccc(N3CCN(C(C)C)CC3)cc2)cnc2c1NCC(C)O2` (stereo not shown) [Example 169, 4-((3,8-dimethyl-2,3-dihydro-1H-pyrido[2,3-b][1,4]oxazin-7-yl)amino)-N-(4-(4-isopropylpiperazin-1-yl)phenyl)-2-oxo-1,2-dihydropyridine-3-carboxamide] the figure was at most 10 nM; with `Cc1c(Nc2cc[nH]c(=O)c2C(=O)Nc2ccc(N3CCN(CC(C)O)CC3)cc2)cnc2c1NCCO2` (stereo not shown) [Example 170, N-(4-(4-(2-hydroxypropyl)piperazin-1-yl)phenyl)-4-((8-methyl-2,3-dihydro-1H-pyrido[2,3-b][1,4]oxazin-7-yl)amino)-2-oxo-1,2-dihydropyridine-3-carboxamide], at most 10 nM.
With `COCCN1CCN(c2ccc(NC(=O)c3c(Nc4cnc5c(c4C)NCC(C)O5)cc[nH]c3=O)cc2)CC1` (stereo not shown) [Example 171, 4-((3,8-dimethyl-2,3-dihydro-1H-pyrido[2,3-b][1,4]oxazin-7-yl)amino)-N-(4-(4-(2-methoxyethyl)piperazin-1-yl)phenyl)-2-oxo-1,2-dihydropyridine-3-carboxamide] the figure was at most 10 nM; with `Cc1c(Nc2cc[nH]c(=O)c2C(=O)Nc2ccc(N3CCN(C)CC3)cc2)cnc2c1NCC(C)(C)O2` [Example 172, N-(4-(4-methylpiperazin-1-yl)phenyl)-2-oxo-4-((3,3,8-trimethyl-2,3-dihydro-1H-pyrido[2,3-b][1,4]oxazin-7-yl)amino)-1,2-dihydropyridine-3-carboxamide], 10 to 100 nM.
With `COCCN1CCN(c2ccc(NC(=O)c3c(Nc4cnc5c(c4C)NCC(C)(C)O5)cc[nH]c3=O)cc2)CC1` [Example 173, N-(4-(4-(2-methoxyethyl)piperazin-1-yl)phenyl)-2-oxo-4-((3,3,8-trimethyl-2,3-dihydro-1H-pyrido[2,3-b][1,4]oxazin-7-yl)amino)-1,2-dihydropyridine-3-carboxamide] the figure was 10 to 100 nM; with `Cc1c(Nc2cc[nH]c(=O)c2C(=O)Nc2ccc(N3CCN(Cc4ccn[nH]4)CC3)cc2)cnc2c1NCCO2` [Example 174, N-(4-(4-((1H-pyrazol-5-yl)methyl)piperazin-1-yl)phenyl)-4-((8-methyl-2,3-dihydro-1H-pyrido[2,3-b][1,4]oxazin-7-yl)amino)-2-oxo-1,2-dihydropyridine-3-carboxamide], at most 10 nM.
